From patent US5571789A (Haemopep Pharma GmbH, priority 1992, dated 1996)
“Also recorded” adds a separate entry of the source.

Assays:
[1] = system: spontaneous respiration parameters (F, PTP, VT, Cdyn, RL, f, MV); assay: Spontaneous respiration parameters by body plethysmograph in narcotized rats; type: in vivo, wistar rats; details: for Effect of infusion on spontaneous respiration parameters after ACh provocation: after total inhalation of 600 ml ACh, groups B-D versus control
Experimental: (§1) A total of 33 female 12 week wistar rats having body weights of 300 g served as test animals. The design of the study was that of a simple blind approach. On each of the experiment days, animals of the control group and of the verum group were measured.
(§2) After steady state conditions were attained the initial values of spontaneous respiration were measured first. Thereafter, a randomized infusion of placebo, urodilatin, or ANP was started. In each case evaluations of the continuously determined spontaneous parameters were made 5 minutes after the beginning of the infusion before an inhalatory acetylcholin (ACh) provocation was made (basic values before Ach provocation).
(§3) 5 minutes after the beginning of the infusion each rat was provoked by inhalation of a defined amount of an ACh aerosol. Evaluation of the spontaneous respiration parameters for each animal was performed after a total inhalation volume of 600 ml (values at the end of ACh provocation).

[2] = system: bronchial asthma (lung function parameters); assay: Lung function in patients with bronchial asthma under 40 minute i.v. infusion; type: in vivo, human; details: for FEV1.0 versus pre values and 20 ng/kg/min group: after 10 minutes of infusion; for PEF, MEF75, MEF50 and MEF25: during infusion; for VCmax versus pre values: during infusion and until 10 minutes thereafter
Text: The anamnesis gave no evidence for an exacerbation of the disease in the last 8 weeks. No nicotine abuse was known from any of the patients. Additional inclusion criteria were defined by an expiratory one-second-capacity (FEV1.0) of 40 to 70% of the maximum vital capacity (VCmax) before administration of a broncho-spasmolytic agent, an effect of a β2 -sympathomimetic on FEV1.0 of ≥15%, no alteration of the maintenance antiobstructive treatment and no administration of oral corticoids in the last 4 weeks before the beginning of the study. Within 8 hours before the beginning of the examinations no inhalatory application of a β2 -sympathomimetic must have occurred anymore.

[3] = system: broncho-constriction caused by inhalation of acetylcholin; assay: Forced expiration (spirography, flow-volume curve) at the end of inhalatory acetylcholin provocation in rats under i.v. infusion; type: in vivo, wistar rats
Experimental: as §1
Employing a test animal body plethysmograph allowed for continuous measurement of the respiration volume (VT), respiration frequency (f), respiration minute volume (MV), resistance of the lung (RL), dynamic compliance (Cdyn), respiration flow (F) and transpulmonary pressure (PTP) of a narcotized, intubated and spontaneously breathing rat. Circulation monitoring was accomplished by EKG recording with evaluation of the heart frequency (HR).
as §2, with “Thereafter, a randomized infusion of placebo, urodilatin, or ANP was started.” left out
By means of an injectomar device the test animals were infused 0.5 ml of solution continuously over a total of 10 minutes.
as §3
To complete the experiments, a forced expiration was performed on each animal in hyperventilation induced apnea. Flow-volume and flow-time (spirography) relations were recorded. The flow-volume curve allows for the evaluation of peak expiratory flow (=PEF), maximum mid-expiratory flow (=MMEF), and flow at 75, 50, 25, and 10% of the forced vital capacity (e.g. FEF 75). Spirography of rats primarily yields the forced vital capacity (FVC) and the expired volume after 0.05, 0.10, 0.20 and 0.40 seconds as an absolute value in ml (e.g. FEV 0.05) or in percent of FVC (e.g. FEV 0.05%).

[4] = cited from earlier work
[5] = group B, 40 ng/kg/min, 5 minutes after beginning of infusion, before ACh
[6] = group B, 40 ng/kg/min i.v. infusion, end of ACh provocation

## urodilatin
[1]
  Effect of infusion on spontaneous respiration parameters after ACh provocation: without a significant effect
[1]; [5]
  Cdyn versus initial values: small, significant decrease
  PTP and RL versus initial values: slight, significant increase
[1]; group C, 80 ng/kg/min, 5 minutes after beginning of infusion, before ACh
  Respiration frequency versus initial values: slight, significant decrease
[2]; 20 ng/kg/min, any time during or after the infusion
  FEV1.0 versus pre values: did not show any significant effect
[2]; 20 ng/kg/min, p<0.05 after 10 and 30 minutes of infusion
  Flow-volume parameters: increase of the MEF75 measurement value alone
[2]; 40 ng/kg/min
  FEV1.0 versus initial values 30 minutes after completion of the infusion: still significantly different from the initial values
  Maxima of PEF, MEF75, MEF50, MEF25 under infusion versus results after Salbutamol inhalation: not significantly different from the measurement results after Salbutamol inhalation, except for MEF50
  FEV1.0 versus pre values and 20 ng/kg/min group: significant increase
  PEF, MEF75, MEF50 and MEF25: increased during the infusion
  VCmax versus pre values: significant increase
[2]; 40 ng/kg/min infusion
  Time of maximum FEV1.0 values: 30 min
[2]; 60 ng/kg/min
  Maxima of PEF, MEF75, MEF50, MEF25 under infusion versus results after Salbutamol inhalation: not significantly different
  Maximum FEV1.0 effect versus values after inhalation of Salbutamol: no longer significantly different
  FEV1.0 versus pre values and 20 ng/kg/min group: significant increase
  PEF, MEF75, MEF50 and MEF25: increased during the infusion
  VCmax versus pre values: significant increase
[2]; 60 ng/kg/min infusion
  Time of maximum effect on FEV1.0: 20 min
[2]; 40 and 60 ng/kg/min
  VCmax maxima versus results after Salbutamol inhalation: did not show any significant differences
[2]; after 20 minutes of infusion
  MEF50, difference between 40 and 60 ng/kg/min: significant difference
[2]; intravenous infusion of 40 and 60 ng/kg/min over 40 minutes, clinically stable bronchial asthma
  Broncho-dilatation: did not result in a significant broncho-dilatation
[3]; 40 ng/kg/min versus 70.305 ng/kg/min ANP
  Protective effect at 40 ng/kg/min versus ANP in a twofold higher dose on a molar basis: clearly more effective than ANP; also recorded: more obvious protective effect than ANP
[3]; animal experiments, parenteral administration
  Protection from broncho-constriction (improved forced expiration): obvious protection
[3]; broncho-constriction by inhaled acetylcholin, parenteral administration
  Effect compared with equimolar doses of ANP: more than two times greater
[3]; [6]
  FEV 0.1% (expired volume after 0.1 seconds based on FVC) versus control group A: significant improvement
  PEF, MMEF, FEF 75, FEF 50 and FEF 25 of the forced expiratory flow-volume curve versus control group A: clear improvement
[3]; group C, 80 ng/kg/min i.v. infusion, end of ACh provocation
  PEF, MMEF, FEF 75, FEF 50 and FEF 25 of the forced expiratory flow-volume curve versus control group A: clear improvement
[3]; groups B and C (40, 80 ng/kg/min) versus group D (70.3 ng/kg/min ANP)
  Effectiveness and duration of action versus ANP (flow-volume curves, FIGS. 1 to 3): more effective and acts for a longer period of time
[3]; i.v. infusion 40 or 80 ng/kg/min, end of ACh provocation
  Other FEV and FEV % values, comparison of groups A-D: not significantly distinct
[3]; infusion of 40 and 80 ng/kg/min
  Effect on the ACh induced changes of the parameters of forced expiration relative to control group A: clearly protective effects
[4]; intravenous application
  Glomerular filtration rate, excretion of water, sodium and chloride: increase the glomerular filtration rate, the excretion of water, sodium and chloride

## CC[C@H](C)[C@@H]1NC(=O)[C@H](CCCNC(=N)N)NC(=O)[C@H](CC(=O)O)NC(=O)[C@H](CCSC)NC(=O)[C@H](CCCNC(=N)N)NC(=O)CNC(=O)CNC(=O)[C@H](Cc2ccccc2)NC(=O)[C@@H](NC(=O)[C@H](CO)NC(=O)[C@H](CO)NC(=O)[C@H](CCCNC(=N)N)NC(=O)[C@H](CCCNC(=N)N)NC(=O)[C@H](CC(C)C)NC(=O)[C@@H](N)CO)CSSC[C@@H](C(=O)N[C@@H](CC(N)=O)C(=O)N[C@@H](CO)C(=O)N[C@@H](Cc2ccccc2)C(=O)N[C@@H](CCCNC(=N)N)C(=O)N[C@@H](Cc2ccc(O)cc2)C(=O)O)NC(=O)CNC(=O)[C@H](CC(C)C)NC(=O)CNC(=O)[C@H](CO)NC(=O)[C@H](CCC(N)=O)NC(=O)[C@H](C)NC(=O)CNC1=O [ANP, atrial natriuretic peptide, reference compound]
[1]
  Effect of infusion on spontaneous respiration parameters after ACh provocation: without a significant effect
[3]; 70.305 ng/kg/min, equimolar with 80 ng/kg/min urodilatin
  Effect on the ACh induced changes of the parameters of forced expiration: less clearly seen
[3]; group D, 70.305 ng/kg/min i.v. infusion (equimolar to group C), end of ACh provocation
  Flow-volume curve parameters versus control group A: significant increase only of PEF and FEF 75
[4]; in vivo, iv
  Hypotensive effect: hypotensive effect observed

## CC(C)(C)NCC(O)c1ccc(O)c(CO)c1 (stereo not shown) [Salbutamol, reference compound]
[2]; 1.25 mg Salbutamol inhaled, all three groups
  FEV1.0: significant increase in FEV1.0
[2]; Salbutamol inhalation, all dosage groups
  Flow-volume parameters (PEF, MEF75, MEF50, MEF25): significant effect
